Data as given in publication PMC11802874, “The hypolipidemic effect of MI-883, the combined CAR agonist/ PXR antagonist, in diet-induced hypercholesterolemia model” (Nature Communications, 2025).
Several values for one entry are separate records, joined by “and”; a condition that tells them apart may be missing. Equal entries are not always repeated.

Legend:
[1] = Stability in human plasma; assay type: in vitro ADME; conditions: plasma (legend: pooled human serum), read-out: Stability in human plasma, t1/2
Protocol: Plasma protein binding, and stability in human and mouse plasma have been tested as previously described. Supplementary Figure 1. […] Four time points over 120 minutes have been analyzed. […] Compounds were tested in triplicate with or without NADPH.

Human recombinant CYP2B6 = target: T1, Human recombinant CYP2B6 (Homo sapiens, UniProt P20813); test: CYP450-Glo CYP2B6 enzymatic activity assay; assay type: biochemical; conditions: for Inhibition assays, CYP2B6 activity (replicates): log[Agonist]
T1 construct: purchased Promega; host or cells: baculovirus-infected insect cells
T1 sequence (P20813 1-491): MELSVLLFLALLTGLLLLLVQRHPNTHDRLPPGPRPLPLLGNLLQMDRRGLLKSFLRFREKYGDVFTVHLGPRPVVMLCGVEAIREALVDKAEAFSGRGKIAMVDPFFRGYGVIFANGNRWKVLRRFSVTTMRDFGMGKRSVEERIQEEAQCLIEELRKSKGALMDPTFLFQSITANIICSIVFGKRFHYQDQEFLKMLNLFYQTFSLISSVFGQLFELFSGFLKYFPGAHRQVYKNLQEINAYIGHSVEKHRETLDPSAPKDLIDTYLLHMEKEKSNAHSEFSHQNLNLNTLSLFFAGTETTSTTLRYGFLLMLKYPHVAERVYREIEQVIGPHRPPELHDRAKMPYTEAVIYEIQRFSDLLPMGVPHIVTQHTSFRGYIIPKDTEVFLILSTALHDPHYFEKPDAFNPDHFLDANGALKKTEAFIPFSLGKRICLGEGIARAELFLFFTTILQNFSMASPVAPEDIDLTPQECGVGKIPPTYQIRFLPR
Text: Data are presented as means±S.D. from three independent measurements.

LXRα = LXRα (Homo sapiens, UniProt Q13133); test: Luciferase reporter gene assay LXRα, HepG2
Text: (§1) Gal4-LBD constructs of tested nuclear receptors have been used together with pGL4.31[luc2P/GAL4UAS/Hygro] luciferase reporter construct and pRL-TK Renilla expression vector (both from Promega, Hercules, USA) in HepG2 cells transfected with Lipofectamine 2000 or 3000 reagents. For GRα and FXR receptors, full-length expression vectors have been used with pGRE-luc or pFXRE-luc luciferase constructs. For the aryl hydrocarbon receptor (AhR), p1A1-luc construct was used with only pRL-TK vector for transfection normalization. A dual reporter assay (Promega, Hercules, USA) was used to analyze both firefly and Renilla luciferase activities.
(§2) Gal4-LBD constructs of tested nuclear receptors have been used together with pGL5-luc luciferase reporter construct and pRL-TK Renilla expression vector in HepG2 cells transfected with Lipofectamine 2000 or 3000 reagents. For GRα and FXR receptors, full-length expression vectors have been used with pGRE-luc or pFXRE-luc luciferase constructs. For the aryl hydrocarbon receptor (AhR), p1A1-luc construct was used with only pRL-TK vector for transfection normalization. […] Bars represent means±S.D. (n=3).

[2] = tested on: humanized PXR-CAR-CYP3A4/3A7 mice fed HCD; test: High-cholesterol diet (HCD) study: weights, plasma biochemistry; assay type: in vivo, mouse; conditions: for ALP / ALT / AST / Albumin / Bilirubin / Fe / UA / Urea / LDH / BW (Fig. 4g) / Chol (Fig. 4h) / Glu (Fig. 4h) / HDL (Fig. 4h) / LDL (Fig. 4h) / LW (Fig. 4g) / LW/BW (Fig. 4g) / TG (Fig. 4h): individual animals
Protocol: For experiments with a high-cholesterol diet (HCD), mice (18–26 weeks) were pretreated ad libitum for 2 weeks with diet containing 15% fat and 12.5 g/kg of cholesterol (E15103, ssniff, Soest, Germany) (Fig. 4f). After this period, animals were randomly assigned to two groups (control vehicle-treated and MI-883-treated animals, with 9 males and 7 females per group). Animals were dosed orally with MI-883 (5 mg/kg every other day—Monday, Wednesday, Friday, and the following Monday and Wednesday, for a total of 5 doses) or vehicle alone (5% DMSO/5% PEG300/90% corn oil) via oral gavage three times per week. The animals remained on the HCD during the treatment period. Mice were sacrificed after 5 treatments.
Mice were weighted and tissues (livers, blood, duodenum, jejunum, ileum, white fat) were removed, weighted and snap frozen in liquid nitrogen and stored at –80 °C until analysis. Blood was collected from the retro-orbital sinus of mice under isoflurane anesthesia into heparin-coated tubes (Kabe Laboratortechnik GmbH, Nümbrecht-Elsenroth, Germany) after 3 h fasting and analyzed on AU480 biochemistry analyzer (Beckman Coulter, Brea, USA). Sample preparation for bile acid and cholesterol analyses from tissues or feces is described below. One of the liver lobes was fixed in formalin, embedded in paraffin blocks, sectioned, and subjected to H&E staining. Blood was analyzed as described in Supplementary, Chapter 10.
Blood was collected from the retro-orbital sinus of mice under isoflurane anesthesia into heparin-coated tubes (Kabe Laboratortechnik GmbH, Nümbrecht-Elsenroth, Germany) after 3 hours of fasting. Blood was left for 10 minutes at room temperature, and then kept on ice until centrifugation (5,000 g at 4°C for 10 minutes). The collected plasma was stored at -80 °C until measurement. Lipoprotein levels and other plasmatic parameters were measured on an AU480 biochemistry analyzer (Beckman Coulter, Brea, USA).

LXRβ = LXRβ (Homo sapiens, UniProt P55055); test: Luciferase reporter gene assay LXRβ, HepG2
Text: as §1, §2

[3] = first vehicle/MI-883 column pair
[4] = second vehicle/MI-883 column pair

Chain of LXRα (Q13133 209-447 limits assumed): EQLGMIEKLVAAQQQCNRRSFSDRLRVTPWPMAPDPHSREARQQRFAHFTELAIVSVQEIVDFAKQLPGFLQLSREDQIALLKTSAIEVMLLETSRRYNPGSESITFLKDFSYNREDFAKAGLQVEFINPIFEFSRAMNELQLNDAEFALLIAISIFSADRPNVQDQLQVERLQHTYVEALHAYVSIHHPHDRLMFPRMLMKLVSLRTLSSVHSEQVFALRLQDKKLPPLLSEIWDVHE
Chain of LXRβ (P55055 222-460 limits assumed): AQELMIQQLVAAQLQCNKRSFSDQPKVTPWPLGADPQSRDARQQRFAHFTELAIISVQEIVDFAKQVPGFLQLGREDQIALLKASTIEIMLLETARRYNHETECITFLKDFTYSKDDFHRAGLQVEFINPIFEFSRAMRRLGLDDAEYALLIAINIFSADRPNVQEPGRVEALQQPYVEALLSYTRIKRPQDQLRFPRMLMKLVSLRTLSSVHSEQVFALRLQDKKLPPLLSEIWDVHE

NC(=O)c1cc(Cn2cc(-c3c(-c4ccc(Cl)cc4)nc4cc(F)ccn34)nn2)ccc1Cl [MI-883, 2-chloro-5-((4-(2-(4-chlorophenyl)-7-fluoroimidazo[1,2-a]pyridin-3-yl)-1H-1,2,3-triazol-1-yl)methyl)benzamide]
half-life at 1 µM [1]: > 120 min
inhibition of CYP2B6 activity (Human recombinant CYP2B6): does not suppress
Inhibition assays, CYP2B6 activity (replicates) (Human recombinant CYP2B6; M 0): 129 and 112 and 119
Inhibition assays, CYP2B6 activity (replicates) (Human recombinant CYP2B6; M 0.5): 112
Inhibition assays, CYP2B6 activity (replicates) (Human recombinant CYP2B6; M 0.5, listed as MI 883): 104 and 118
Inhibition assays, CYP2B6 activity (replicates) (Human recombinant CYP2B6; M 1): 114 (2×) and 110
Inhibition assays, CYP2B6 activity (replicates) (Human recombinant CYP2B6; M -0.5): 102 and 120 and 140
Inhibition assays, CYP2B6 activity (replicates) (Human recombinant CYP2B6; M -1): 98
Inhibition assays, CYP2B6 activity (replicates) (Human recombinant CYP2B6; M -1, listed as MI 883): 104 and 111
Inhibition assays, CYP2B6 activity (replicates) (Human recombinant CYP2B6; M -2): 100
Inhibition assays, CYP2B6 activity (replicates) (Human recombinant CYP2B6; M -2.5): 100
Inhibition assays, CYP2B6 activity (replicates) (Human recombinant CYP2B6; M -3): 100
Inhibition assays, CYP2B6 activity (replicates) (Human recombinant CYP2B6; M -3.5): 100
Inhibition assays, CYP2B6 activity (replicates) (Human recombinant CYP2B6; M -4): 100
Inhibition assays, CYP2B6 activity (replicates) (Human recombinant CYP2B6; M -4.5): 100
NRs assays: GAL4-LXR+RXR (relative to ctrl, replicates) (LXRα): 0.88 and 1.89 and 2.24
ALP ([2]; HCD female): 64 and 60 and 66
ALT ([2]; HCD female): 52 and 44 and 50 and 65 and 53 and 31 and 37
AST ([2]; HCD female): 97 and 85 and 59 and 60 and 100 and 48
Albumin ([2]; HCD female): 29.13 and 29.02 and 28.37 and 27.41 and 25.72 and 27.39 and 28.99
Bilirubin ([2]; HCD female): 1.92 and 2.23 and 1.15 and 0.79 and 1.09 and 1.2
Fe ([2]; HCD female): 25.95 and 24.87 and 19.99 and 29.01 and 26.38 and 27.47 and 25.24
UA ([2]; HCD female): 74.13 and 68.35 and 69.17 and 60.17 and 117.85 and 58.32 and 32.43
Urea ([2]; HCD female): 5.81 and 6.85 and 7.72 and 6.07 and 8.19 and 6.12 and 7.88
ALP ([2]; HCD male): 60 and 53 and 64 and 50 and 42 and 46 and 69 and 45 and 43
ALT ([2]; HCD male): 335 and 154 and 210 and 103 and 48 and 36 and 40 and 194 and 61
AST ([2]; HCD male): 202 and 190 and 151 and 98 and 62 and 43 and 71 and 125 and 88
Albumin ([2]; HCD male): 25.95 and 26.89 and 26.71 and 27.24 and 27.46 and 26.93 and 28.1 and 27.95 and 27.85
Bilirubin ([2]; HCD male): 1.82 and 2.96 and 1.74 and 3.02 and 2.04 and 3.59 and 1.89 and 1.94
Fe ([2]; HCD male): 21.53 and 13.76 and 24.97 and 21.49 and 28.7 and 25.79 and 20.83 and 28.43 and 27.87
UA ([2]; HCD male): 56.8 and 93.42 and 54.01 and 55.84 and 44.35 and 31.12 and 35.14 and 37.35 and 25.57
Urea ([2]; HCD male): 7.34 and 6.71 and 7.14 and 5.73 and 5.13 and 5.97 and 6.54 and 7
liver weight (LW) and LW/BW ([2]; HCD, p.o. 5 mg/kg, five doses every other day): not after five doses
LDH ([2]; HCD, (sex not given)): 1.47 and 1.15 and 1.63 and 0.85 and 1.36 and 1.38 and 0.99 and 1.41 and 1.28
LDH ([2]; HCD, vehicle/MI-883 (sex not given)): 1.12 and 1.15 and 1.19 and 1.1 and 1.09
BW (Fig. 4g) [2, 3]: 26.3 and 24.9 and 24.8 and 24.3 and 24 and 23.2
Chol (Fig. 4h) [2, 3]: 3.83 and 3.39 and 3.78 and 3.72 and 3.46 and 3.54 and 3.66
Glu (Fig. 4h) [2, 3]: 13.29 and 13.05 and 14.81 and 13.6 and 14.89 and 13.61 and 13.46
HDL (Fig. 4h) [2, 3]: 2.476 and 2.431 and 2.259 and 2.337 and 2.161 and 2.202 and 2.297
LDL (Fig. 4h) [2, 3]: 1.12 and 1.15 and 1.19 and 1.1 and 1.09
LW (Fig. 4g) [2, 3]: 1.78 and 1.62 and 1.65 and 1.52 and 1.64 and 1.48
LW/BW (Fig. 4g) [2, 3]: 6.77 and 6.51 and 6.65 and 6.255 and 6.833 and 6.379
TG (Fig. 4h) [2, 3]: 1.189 and 1.059 and 1.137 and 1.521 and 2.113 and 1.22 and 1.433
triglyceride levels in females ([2]; second study (HCD), at the level of statistical significance): some increase
BW (Fig. 4g) [2, 4]: 30 and 29.4 and 30.6 and 30.9 and 33.4 and 29.7 and 26.5 and 28.4 and 26.8
Chol (Fig. 4h) [2, 4]: 5.16 and 3.99 and 5.8 and 3.44 and 4.89 and 4.88 and 4.18 and 4.72
Glu (Fig. 4h) [2, 4]: 13.25 and 13.05 and 16.4 and 12.86 and 18.52 and 15.35 and 11.72 and 18.14 and 17.74
HDL (Fig. 4h) [2, 4]: 3.01 and 2.484 and 3.335 and 2.267 and 3.073 and 3.039 and 2.781 and 3.388 and 2.988
LDL (Fig. 4h) [2, 4]: 1.47 and 1.15 and 1.63 and 0.85 and 1.36 and 1.38 and 0.99 and 1.41 and 1.28
LW (Fig. 4g) [2, 4]: 1.63 and 1.97 and 2.03 and 1.53 and 2.51 and 2.11 and 1.85 and 1.32 and 1.94
LW/BW (Fig. 4g) [2, 4]: 5.43 and 6.7 and 6.63 and 4.95 and 7.51 and 7.1 and 6.98 and 4.65 and 7.24
TG (Fig. 4h) [2, 4]: 0.993 and 0.808 and 0.849 and 0.608 and 0.516 and 0.697 and 0.709 and 0.93 and 0.706
NRs assays: LXRbeta (relative to ctrl, replicates) (LXRβ): 0.51 and 0.81 and 0.55
